# From paper PMC7715017, “Conjugation of Synthetic Polyproline Moietes to Lipid II Binding Fragments of Nisin Yields Active and Stable Antimicrobials” (Frontiers in Microbiology, 2020)
# Legend:
# Micrococcus flavus = conditions: M. flavus; 0.15 nmol per well; 30°C overnight
# Description: Agar well diffusion assay against Micrococcus flavus was performed as described previously ([van Heel et al., 2013]). 0.15 nmol of each sample was added to each well. The agar plate was incubated at 30°C overnight, after which the zone of inhibition was measured.
# (§1) M. flavus was used as the indicator strain for the agar well diffusion assay, and 0.15 nmol of each sample was added to each well (Figure 3). […] Antimicrobial activity of all compounds was tested by growth inhibition assays against two clinically relevant Gram-positive pathogens, i.e., methicillin resistant S. aureus and vancomycin resistant E. faecium, as well as L. monocytogenes, and L. lactis. […] For this experiment, an activity test was performed against the NSR producing strain L. lactis NZ9000 (pNSR).
# [1] = test system: Enterococcus faecium LMG 16003 (vancomycin resistant, VRE); conditions: LMG 16003
# Description: (§2) All samples were resuspended in 0.05% aqueous acetic acid solution and the peptide amount was quantified by HPLC according to Schmitt et al. ([Schmitt et al., 2019]). The indicator strains MW2-MRSA, Enterococcus faecium, Listeria monocytogenes, and Lactococcus lactis were first streaked on GM17 plate and cultured overnight. The peptide samples were diluted with 0.05% acetic acid to a concentration of 40–320 μM (depending on the estimated activity of the peptide and the strain tested). The MIC value test was performed according to [Wiegand et al. (2008)].
# as §1
# [2] = test system: MW2-MRSA (Staphylococcus aureus MW2, methicillin resistant); conditions: MW2- ( MW2, methicillin resistant)
# Description: as §2, §1
# [3] = test system: Listeria monocytogenes LMG 10470; conditions: LMG 10470
# Description: as §2, §1
# [4] = test system: L. lactis NZ9000 (pEmpty); conditions: broth microdilution (Wiegand et al. 2008); samples in 0.05% acetic acid; strain with empty plasmid
# Description: as §2, §1
smiles,measurement,setting,value
C=C1NC(=O)[C@H]([C@@H](C)CC)NC(=O)[C@H](NC(=O)/C(=C/C)NC(=O)[C@@H](N)[C@@H](C)CC)CSC[C@@H](C(=O)N[C@H]2C(=O)N3CCC[C@H]3C(=O)NCC(=O)N[C@H](C(=O)N[C@@H](CCCCN)C(=O)N[C@H]3C(=O)NCC(=O)N[C@@H](C)C(=O)N[C@@H](CC(C)C)C(=O)N[C@@H](CCSC)C(=O)NCC(=O)N[C@H](C(=O)N[C@@H](CC(N)=O)C(=O)NCCCn4cc(CCC(=O)N5[C@H](C(=O)N6[C@H](C(=O)N7[C@H](C(=O)N[C@@H](CCCCN)C(=O)N[C@@H](CCCCN)C(=O)N[C@@H](CCCCN)C(=O)O)C[C@@H]8CCCC[C@@H]87)C[C@@H]7CCCC[C@@H]76)C[C@@H]6CCCC[C@@H]65)nn4)CS[C@H]3C)CS[C@H]2C)NC(=O)[C@H](CC(C)C)NC1=O [Nisin ABC + O3K3],Antimicrobial activity (zone of inhibition) in agar well diffusion assay,Micrococcus flavus,considerably higher than that of nisin ABC
same,"MIC value, E. faecium",[1],40 µM
same,"MIC value, MW2-MRSA",[2],80 µM
same,"MIC value, L. monocytogenes",[3],80 µM
same,"MIC value, L. lactis NZ9000 (pEmpty)",[4],2.5 μM
"C=C1NC(=O)[C@H]([C@@H](C)CC)NC(=O)[C@H](NC(=O)/C(=C/C)NC(=O)[C@@H](N)[C@@H](C)CC)CSC[C@@H](C(=O)N[C@H]2C(=O)N3CCC[C@H]3C(=O)NCC(=O)N[C@H](C(=O)N[C@@H](CCCCN)C(=O)O)CS[C@H]2C)NC(=O)[C@H](CC(C)C)NC1=O [Nisin AB, reference compound]",Antimicrobial activity (zone of inhibition) in agar well diffusion assay,Micrococcus flavus,not active alone
same,"MIC value, E. faecium",[1],160 µM
same,"MIC value, MW2-MRSA",[2],>320 µM
same,"MIC value, L. monocytogenes",[3],>320 µM
same,"MIC value, L. lactis NZ9000 (pEmpty)",[4],>40 μM
